Data from US20220017833A1, “Methods and Compositions for Scavenging Sulfides from Hydrocarbon Fluids and Aqueous Streams” (Nexgen Oilfield Chemicals, LLC, priority 2019, published 2022).

Key:
[1] = Long Reaction Time Capacity Test; conditions: for Min/Eq BT / Min/Eq FD / Min to BT / Min to FD: 20 g test
From the text: (§1) Referring now to FIG. 1, therein is schematically depicted a sulfide scavenger testing system 100 comprising a gas source 2, a flow regulator 4, gas treatment vessel 6, and a sulfide measurement device 8. In one testing embodiment, gas (not shown) is flowed from gas source 2 via gas feed piping 10 into flow regulator 4, which regulates gas flow to gas treatment vessel 6 via regulated gas feed piping 12. The regulated gas flows into gas treatment vessel 6 via a bottom inlet 14 thereof, where it comes into contact with a volume of liquid 16 comprising a sulfide scavenger system (not separately labeled). The gas, having been treated by the liquid, flows out of a top end 18 of gas treatment vessel 6 and flows into sulfide measurement device 8 via treated gas outlet piping 20.
In one embodiment, the gas contained in gas source 2 consists substantially of about 15% H2S, and about 3% CO2, with the remainder being Methane. In one embodiment, gas flow from the flow regulator 4 is controlled such that the gas is flowed into the gas treatment vessel 6 at a flow rate of 100 mL/min. up to 500 mL/min. In one embodiment, a gas sparging device, such as a fine pore frit (not shown), is utilized to better distribute the gas into the scavenger liquid. In one embodiment, the gas treatment vessel 6 contains about 20 g of a liquid H2S scavenger, such as one or more diaminols/diaminacetals in a chemical system as described above. In one aspect, to the extent possible, H2S and/or CO2 are scavenged from the gas by the scavenger and the treated (“sweet”) gas exits top end 18 of treatment vessel 6. In one embodiment, sulfide measurement device 8 monitors the concentration of H2S leaving treatment vessel 6. in the gas phase. In other embodiments (not shown), a CO2 measurement device may be similarly employed to monitor the concentration of CO2 leaving treatment vessel 6 in the gas phase.
(§2) In one embodiment, gas is flowed through sulfide scavenger testing system 100 until the outlet H2S concentration reaches a 4,000 ppm target, at which point the test is concluded. This relative time duration before the target is reached is used to compare H2S scavenger capacity given the kinetics of each sulfide scavenger system. The longer the duration, the better the capacity.
In this test, methane containing 15% H2S and 3% CO2 by weight is sparged via a fine pore frit (not shown) at 100 mL/min through a column of 20 g of scavenger solution (See FIG. 1). The fine bubbles produced rise slowly, providing plenty of time, plenty of surface area, and a short path through which the H2S must diffuse to the scavenger in the liquid 16. Detector 8 on the outlet line 20 is used to measure H2S concentration in the exiting gas. The times to first detection (FD), at a threshold of 15 ppm, and to complete breakthrough (BT), at the detector saturation of 4000 ppm (0.4%), are recorded. This test is designed to measure the effective scavenging capacity in applications with long contact times.
Note that the true total capacity of a scavenger with infinite time to react is simply equal to the stoichiometry of the reaction—the moles of H2S consumable per mole of scavenging molecule, which can be calculated. This Long Reaction Time Capacity measurement falls short of that ultimate stoichiometric capacity and so is still reaction rate dependent, just less so than the Short Reaction Time Capacity Test.

[2] = Short Reaction Time Capacity Test; conditions: for Min/Eq BT / Min/Eq FD / Min to BT / Min to FD: 20 g test; for Min to BT / Min to FD: 3.00 g BuOH, GIDA 6.68 g as GID, 3.32 g water
From the text: as §1
In one embodiment, gas flow from the flow regulator 4 is controlled such that the gas is flowed into the gas treatment vessel 6 at a flow rate of 100 mL/min. up to 500 mL/min. In one embodiment, a gas sparging device, such as a fine pore frit (not shown), is utilized to better distribute the gas into the scavenger liquid. In one embodiment, the gas treatment vessel 6 contains about 20 g of a liquid H2S scavenger, such as one or more diaminols/diaminacetals in a chemical system as described above. In one aspect, to the extent possible, H2S and/or CO2 are scavenged from the gas by the scavenger and the treated (“sweet”) gas exits top end 18 of treatment vessel 6. In one embodiment, sulfide measurement device 8 monitors the concentration of H2S leaving treatment vessel 6. in the gas phase. In other embodiments (not shown), a CO2 measurement device may be similarly employed to monitor the concentration of CO2 leaving treatment vessel 6 in the gas phase.
as §2
The fine bubbles produced rise slowly, providing plenty of time, plenty of surface area, and a short path through which the H2S must diffuse to the scavenger in the liquid 16. Detector 8 on the outlet line 20 is used to measure H2S concentration in the exiting gas. The times to first detection (FD), at a threshold of 15 ppm, and to complete breakthrough (BT), at the detector saturation of 4000 ppm (0.4%), are recorded. This test is designed to measure the effective scavenging capacity in applications with long contact times.
This test is the same as the Long Reaction Time Capacity Test, but without the gas sparging device, so as to produce larger bubbles, and at a higher feed rate of 200 mL/min, after the first 8 minutes at 100 mL/min. The larger bubbles rise quickly through the liquid 16, providing little time, little surface area, and a long path through which the H2S must diffuse to the scavenger in the liquid. This test is designed to measure the effective scavenging capacity in applications with short contact times. It is far more reaction rate dependent than the Long Reaction Time Capacity and so is a more critical and differentiating test.
With triazine, one H2S reacts twice with the same molecule of triazine, replacing one amine, so the rate is “first order”, meaning proportional to the concentration of triazine.

[3] = operational testing in a natural gas production facility; conditions: natural gas production facility
Experimental: In operational testing in a natural gas production facility, both an anhydrous glyoxy isopropyl aminacetal (GIDAc) scavenging system and an aqueous glyoxy isopropyl diaminol (GIDA) scavenging system were tested in comparison with an industry standard triazine-based scavenger.

[4] = Eq/test Triazine 0.068, GIDAc 0.185, GIDA 0.076
[5] = GIDAc 9.00 g as GID + 11.00 g MeOH
[6] = Triazine 7.50 g + 12.50 g water, GIDAc 13.00 g as GID + 7.00 g MeOH, GIDA 6.68 g as GID, 3.32 g water, 8.00 g MeOH, 2.00 g BuOH
[7] = Eq/test GIDAc 0.114, GIDA 0.076 (8.00 g MeOH, 2.00 g BuOH)
[8] = Eq/test Triazine 0.068, GIDAc 0.157, GIDA 0.076 (7.50 g MeOH, 2.50 g BuOH)
[9] = GIDAc 8.00 g as GID, 9.00 g MeOH, 8.00 g MeOH, 2.00 g BuOH
[10] = Triazine 7.50 g + 12.50 g water, GIDAc 11.00 g as GID, 6.00 g MeOH, 7.50 g MeOH, 2.50 g BuOH
[11] = Short Reaction Time Capacity Test, Table 2 compositions

Question: With `COC(NC(C)C)C(NC(C)C)OC` (stereo not drawn) [GIDAc] as the compound, how does the “Min/Eq BT” value [1, 4] read?
Answer: 707 Min/Eq

Question: What about the “Min/Eq FD” value [1, 4] of the same compound?
Answer: 566 Min/Eq

Question: And the “Min/Eq BT” value ([1]; GIDAc 0.128 Eq/test)?
Answer: 771 Min/Eq

Question: What about the “Min/Eq FD” value ([1]; GIDAc 0.128 Eq/test) of the same compound?
Answer: 592 Min/Eq

Question: And the “Min to BT” value [1, 5]?
Answer: 99 min

Question: And the “Min to FD” value [1, 5]?
Answer: 76 min

Question: And the “Min to BT” value [1, 6]?
Answer: 131 min

Question: And the “Min to FD” value [1, 6]?
Answer: 105 min

Question: And the “molar capacity at long reaction times (comparison, accounting for molar concentration)” value ([1]; Graph 1 (FIG. 3))?
Answer: the same capacity as GIDA at long reaction times

Question: What about the “Min/Eq BT” value [2, 7] of the same compound?
Answer: 438 Min/Eq

Question: And the “Min/Eq FD” value [2, 7]?
Answer: 368 Min/Eq

Question: And the “Min/Eq BT” value [2, 8]?
Answer: 376 Min/Eq

Question: What about the “Min/Eq FD” value [2, 8] of the same compound?
Answer: 319 Min/Eq

Question: And the “Min to BT” value [2, 9]?
Answer: 50 min

Question: And the “Min to FD” value [2, 9]?
Answer: 42 min

Question: And the “Min to BT” value [2, 10]?
Answer: 59 min

Question: What about the “Min to FD” value [2, 10] of the same compound?
Answer: 50 min

Question: And the “molar capacity at short reaction times (comparison, accounting for molar concentration)” value ([2]; Graph 1 (FIG. 3))?
Answer: lower molar capacity at short reaction times

Question: And the “contribution to the BT capacity (coefficient of best fit equation)” value [2, 11]?
Answer: 404 minutes per equivalent

Question: What about the “contribution to the FD capacity (coefficient of best fit equation)” value [2, 11] of the same compound?
Answer: 324 minutes per equivalent

Question: What about the “employable in scavenging H2S from natural gas” value [3] of the same compound?
Answer: employable
